From patent publication US20250351832A1, “PHYTOCHEMICALS AS BIOPESTICIDES AND BIOSTIMULANTS” (KAY BEE BIO ORGANICS PVT. LTD., priority 2024, published 2025)
Like-named read-outs stand apart in the source and are kept apart here.

How the values were obtained:
tomato seedlings = assay: Response of tomato plants, greenhouse growth (Ex. 30); format: in vivo; settings: for CCI 5th Day / Plant Height 5th Day / Stem Girth 5th Day: 120 h; for CCI 10th Day / Plant Height 10th Day / Root Length % Increase over control / Stem Girth 10th Day: 240 h; for Plant Height % Increase over pre on 10th Day / Stem Girth % Increase over pre on 10th Day / CCI % Increase over pre on 10th Day / Root Length (cm) 10th Day: tomato seedlings, dose 1 ml/gm/lit
Thrips [1] = assay: whole plant or invertebrate; settings: in Gossypium hirsutum, 48 h
Mite [2] = settings: in vivo
Spodoptera litura [3] = settings: in vivo
Alternaria alternata = assay: In vitro poisoned food technique against fungus (Ex. 20); format: cell-based; settings: […]
Thrips [4] = settings: 48 h, 1 mL or g/L
Spodoptera litura [5] = test system: Spodoptera litura
chili seedlings = assay: Response of chili plants, greenhouse growth (Ex. 31); format: in vivo; settings: for CCI 5th Day / Plant Height (cm) 5th Day: 120 h; for CCI 10th Day / Plant Height (cm) 10th Day / Root Lenght % Increase over control: 240 h; for CCI % Increase over pre on 10th Day / Plant Height % Increase over pre on 10th Day / Root Lenght (cm) 10th Day / Stem Girth % Increase over pre on 10th Day: chili seedlings, dose 1 ml/gm/lit
Spodoptera litura [6] = assay: whole plant or invertebrate; settings: 72 h
[7] = cited from earlier work; for Phytotonic Effect: Table 13, effect on plants, descriptive
Aphid [8] = settings: 48 h, 1 mL or g/L
Aphid [9] = test system: Aphid
Mite [10] = settings: in vivo; remark: listed apart in the source
Aphid [11] = assay: whole plant or invertebrate; settings: 48 h
Thrips [12] = test system: Thrips
Helicoverpa armigera [13] = settings: in vivo
Helicoverpa armigera [14] = settings: in vivo; remark: listed apart in the source
[15] = read-out: % Corrected Mortality at 48 Hrs.
[16] = read-out: % Mortality at 48 Hrs.
[17] = read-out: % Corrected Mortality at 72 Hrs.
[18] = read-out: % Mortality at 72 Hrs.
[19] = Table 13, descriptive, no test described

CC(C)=CCCC(C)=CC=O [Citral]
CCI Pre (tomato seedlings): 11.20
Plant Height Pre (tomato seedlings): 6.11 cm
Stem Girth Pre (tomato seedlings): 1.35 mm
CCI 5th Day (tomato seedlings): 13.34
Plant Height 5th Day (tomato seedlings): 7.15 cm
Stem Girth 5th Day (tomato seedlings): 1.46 mm
CCI 10th Day (tomato seedlings): 14.25
Plant Height 10th Day (tomato seedlings): 7.85 cm
Root Length % Increase over control (tomato seedlings): 25.08%
Stem Girth 10th Day (tomato seedlings): 2.12 mm
Plant Height % Increase over pre on 10th Day (tomato seedlings): 28.48%
Stem Girth % Increase over pre on 10th Day (tomato seedlings): 56.50%
CCI % Increase over pre on 10th Day (tomato seedlings): 27.23%
Root Length (cm) 10th Day (tomato seedlings): 4.16 cm
mortality at 1 mL or g/L (Thrips [1]; [15]): 51.4%
mortality at 1 mL or g/L (Thrips [1]; [16]): 57.5%
% Mortality at 48 Hrs. (Mite [2]): 55.00%
% Corrected Mortality at 72 Hrs. (Spodoptera litura [3]): 50.00%
% Mortality at 72 Hrs. (Spodoptera litura [3]): 52.50%
inhibition of growth at 1 mL or g/L (Alternaria alternata): 48.3%
Total No. of dead insect at 48 Hrs. (Thrips [4]): 5.75
Total No. of dead insect at 72 Hrs. (Spodoptera litura [5]; 72 h, 1 mL or g/L): 5.50
CCI Pre (chili seedlings): 8.60
Plant Height (cm) Pre (chili seedlings): 4.47 cm
CCI 5th Day (chili seedlings): 11.02
Plant Height (cm) 5th Day (chili seedlings): 6.30 cm
CCI 10th Day (chili seedlings): 12.02
Plant Height (cm) 10th Day (chili seedlings): 6.79 cm
Root Lenght % Increase over control (chili seedlings): 14.22%
CCI % Increase over pre on 10th Day (chili seedlings): 39.77%
Plant Height % Increase over pre on 10th Day (chili seedlings): 52.01%
Root Lenght (cm) 10th Day (chili seedlings): 3.13 cm
Stem Girth % Increase over pre on 10th Day (chili seedlings): 38.62%
mortality at 1 mL or g/L (Spodoptera litura [6]; [17]): 52.6%
mortality at 1 mL or g/L (Spodoptera litura [6]; [18]): 55%
Acaricidal Activity - Mode of action [7, 19]: Repelling and killing
Antifungal Activity - Mode of action [7, 19]: Inhibited the mycelial
Antioxidant Activity - Mode of action [7, 19]: Induced the overexpression
Bactericidal Activity - Mode of action [7, 19]: High mortality against
Insecticidal Activities - Mode of action [7, 19]: Repellent and Antifeedant
Nematicidal Activity - Mode of action [7, 19]: Strong Nematicidal activity
Virucidal Activity - Mode of action [7, 19]: Increases plant disease
Phytotonic Effect [7]: Trigger
Total No. of dead insect at 48 Hrs. (Aphid [8]): 70.00
Total No. of dead insect at 48 Hrs. (Aphid [9]): 6.50
% Corrected Mortality at 48 Hrs. (Aphid [9]; in vivo): 60.00%
% Mortality at 48 Hrs. (Aphid [9]; in vivo): 65.00%
% Mortality at 48 Hrs. (Mite [10]): 55.00%
mortality at 1 mL or g/L (Aphid [11]; [15]): 64.7%
mortality at 1 mL or g/L (Aphid [11]; [16]): 70%
Total No. of dead insect at 48 Hrs. (Thrips [12]): 57.50
% Corrected Mortality at 48 Hrs. (Thrips [12]; in vivo): 52.78%

Cc1ccc(C(C)C)cc1 [p-Cymene]
CCI Pre (tomato seedlings): 12.58
Plant Height Pre (tomato seedlings): 6.12 cm
Stem Girth Pre (tomato seedlings): 1.35 mm
CCI 5th Day (tomato seedlings): 14.52
Plant Height 5th Day (tomato seedlings): 7.24 cm
Stem Girth 5th Day (tomato seedlings): 1.82 mm
CCI 10th Day (tomato seedlings): 15.68
Plant Height 10th Day (tomato seedlings): 7.84 cm
Root Length % Increase over control (tomato seedlings): 21.38%
Stem Girth 10th Day (tomato seedlings): 2.06 mm
Plant Height % Increase over pre on 10th Day (tomato seedlings): 28.10%
Stem Girth % Increase over pre on 10th Day (tomato seedlings): 52.59%
CCI % Increase over pre on 10th Day (tomato seedlings): 24.64%
Root Length (cm) 10th Day (tomato seedlings): 4.04 cm
mortality at 1 mL or g/L (Thrips [1]; [15]): 54.3%
mortality at 1 mL or g/L (Thrips [1]; [16]): 60%
% Corrected Mortality at 72 Hrs. (Spodoptera litura [3]): 68.42%
% Mortality at 72 Hrs. (Spodoptera litura [3]): 70.00%
inhibition of growth at 1 mL or g/L (Alternaria alternata): 34.1%
Total No. of dead insect at 48 Hrs. (Thrips [4]): 6.00
Total No. of dead insect at 72 Hrs. (Spodoptera litura [5]; Spodoptera litura on castor leaves, dose 1 ml/gm/lit., 10 insects/treatment, 72 hrs after application): 7.25
CCI Pre (chili seedlings): 9.30
Plant Height (cm) Pre (chili seedlings): 4.29 cm
CCI 5th Day (chili seedlings): 11.47
Plant Height (cm) 5th Day (chili seedlings): 6.13 cm
CCI 10th Day (chili seedlings): 13.48
Plant Height (cm) 10th Day (chili seedlings): 6.48 cm
Root Lenght % Increase over control (chili seedlings): 15.10%
CCI % Increase over pre on 10th Day (chili seedlings): 44.95%
Plant Height % Increase over pre on 10th Day (chili seedlings): 51.05%
Root Lenght (cm) 10th Day (chili seedlings): 3.15 cm
Stem Girth % Increase over pre on 10th Day (chili seedlings): 40.29%
mortality at 1 mL or g/L (Spodoptera litura [6]; [17]): 71%
mortality at 1 mL or g/L (Spodoptera litura [6]; [18]): 72.5%
Acaricidal Activity - Mode of action [7, 19]: Showed mortality against
Bactericidal Activity - Mode of action [7, 19]: Strong anti-bacterial
Insecticidal Activities - Mode of action [7, 19]: High mortality against
Nematicidal Activity - Mode of action [7, 19]: Effective in reducing
Phytotonic Effect [7]: Trigger plant
% Corrected Mortality at 72 Hrs. (Helicoverpa armigera [13]): 65.00%
% Mortality at 72 Hrs. (Helicoverpa armigera [13]): 65.00%
Total No. of dead insect at 48 Hrs. (Aphid [8]): 60.00
% Corrected Mortality at 72 Hrs. (Helicoverpa armigera [14]): 65.00%
% Mortality at 72 Hrs. (Helicoverpa armigera [14]): 65.00%
Total No. of dead insect at 48 Hrs. (Aphid [9]): 6.00
% Corrected Mortality at 48 Hrs. (Aphid [9]; in vivo): 54.29%
mortality at 1 mL or g/L (Aphid [11]; [15]): 52.9%
mortality at 1 mL or g/L (Aphid [11]; [16]): 60%
Total No. of dead insect at 48 Hrs. (Thrips [12]): 57.50
% Corrected Mortality at 48 Hrs. (Thrips [12]; in vivo): 52.78%
% Mortality at 48 Hrs. (Thrips [12]; in vivo): 57.50%
